Experimental data taken from US6133266A, “3,4-disubstituted phenylethanolaminotetralincarboxamide derivatives” (Kissei Pharmaceutical Co., Ltd., priority 1996, dated 2000).
Structures can show the parent of a compound that is named as a salt.

Assays:
[1] = system: male ICR mice; assay: Acute toxicity; format: in vivo; details: 5 male ICR mice, intravenously in saline, 20 mg/kg, during 24 hours after the administration
Description: To 5 male ICR mice of 4 weeks age was administered intravenously 2-[(2S)-2-[[(2R)-2-hydroxy-2-(4-hydroxy-3hydroxymethylphenyl)ethyl]amino]- 1,2,3,4-tetrahydronaphthalen-7-yloxy]-N,N-dimethylacetamide 0.5 sulfate in saline at dose of 20 mg/kg.

[2] = system: β1 -adrenergic receptor; assay: Action of drugs on the atrial contractions of isolated atria (isolated rat atrium); format: cell-based; details: isolated atria of SD male rats, Magnus method, 37° C.
Description: Thus, the compounds of the present invention have markedly weak β1 -adrenergic receptor stimulating effect in comparison with the aforementioned β2 -adrenergic receptor stimulating effect.
Action of drugs on the atrial contractions of isolated atria The atria of SD male rats (350 to 400 g in body weight) were isolated and the experiment was conducted according to the Magnus method. The preparations were mounted with a tension of 1 g in Krebs-Henseleit solution maintained at 37° C. and gassed with a mixture of 95% of oxygen and 5% of carbon dioxide. The atrial contraction was induced isometrically via a pressure transducer and recorded on a rectigram. After addition of the drug, its efficacy was evaluated by calculating EC20 value which is the drug concentration which increases 20 beats per minute of heart rate.

[3] = molecular target: T1, β2 -adrenergic receptor (Rattus norvegicus, UniProt P10608); assay: Action of drugs on the spontaneous contractions of isolated myometria (isolated rat pregnant uterus); format: cell-based; details: isolated pregnant SD rat uterus (pregnancy day 21), Magnus method, 37° C.; read-out: EC50, activity to relax 50% of the spontaneous contractions of rat myometrium
T1 construct: longitudinal uterine muscle strips (about 15 mm in length and about 5 mm in width); from tissue; host or cells: longitudinal uterine muscle strips of pregnant SD rat (day 21)
T1 sequence (P10608 whole entry): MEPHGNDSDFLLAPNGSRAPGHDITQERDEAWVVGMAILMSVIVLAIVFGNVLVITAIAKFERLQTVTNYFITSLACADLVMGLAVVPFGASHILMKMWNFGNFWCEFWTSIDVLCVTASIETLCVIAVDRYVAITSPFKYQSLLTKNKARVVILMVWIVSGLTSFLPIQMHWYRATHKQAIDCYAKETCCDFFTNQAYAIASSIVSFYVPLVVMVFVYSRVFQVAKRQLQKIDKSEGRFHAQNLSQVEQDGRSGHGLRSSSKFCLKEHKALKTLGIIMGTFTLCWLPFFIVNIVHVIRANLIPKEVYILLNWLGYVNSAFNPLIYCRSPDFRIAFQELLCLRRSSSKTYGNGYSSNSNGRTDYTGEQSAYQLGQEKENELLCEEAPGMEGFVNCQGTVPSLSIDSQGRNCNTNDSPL
Description: Thus, the compounds of the present invention have markedly potent β2 -adrenergic receptor stimulating effect and therefore are remarkably useful as β2 -adrenergic receptor stimulating agents.
Action of drugs on the spontaneous contractions of isolated myometria
The uterus of a pregnant SD rat (pregnancy day of 21) was isolated and longitudinal uterine muscle strips (about 15 mm in length and about 5 mm in width) free from the basal plate were prepared. The experiment was conducted according to the Magnus method. The preparations were mounted with a tension of 1 g in Locke-Ringer solution maintained at 37° C. and gassed with a mixture of 95% of oxygen and 5% of carbon dioxide. Spontaneous contractions of the myometrium were induced isometrically via a pressure transducer and recorded on a rectigram. The efficacy was evaluated by comparing the total degree of uterine contraction during 5 minutes before the addition of the drug with the total degree of uterine contraction during 5 minutes after the addition of the drug and calculating the 50% inhibitory concentration as EC50.

Compound | death of animals [1] | EC20 value, activity to increase 20 beats per minute of rat heart rate [2] | EC50 [3]
CN(C)C(=O)COc1ccc2c(c1)C[C@@H](NC[C@H](O)c1ccc(O)c(CO)c1)CC2 [Compound 19, (-)-2-[(2S)-2-[[(2R)-2-Hydroxy-2-(4-hydroxy-3-hydroxymethylphenyl)ethyl]amino]-1,2,3,4-tetrahydronaphthalen-7-yloxy]-N,N-dimethylacetamide 0.5 sulfate] | No death of animals was observed |  | 
CN(C)C(=O)COc1ccc2c(c1)C[C@@H](NCC(O)c1ccc(O)c(CO)c1)CC2 (mixture of isomers) [Compound 1, 2-[(2S)-2-[[(2RS)-2-Hydroxy-2-(4-hydroxy-3-hydroxymethylphenyl)ethyl]amino]-1,2,3,4-tetrahydronaphthalen-7yloxy]-N,N-dimethylacetamide] |  | 2.5×10^-6 mol concentration | 5.3 nM
CN(C)C(=O)COc1ccc2c(c1)C[C@@H](NC[C@H](O)c1ccc(O)c(CO)c1)CC2 [Compound 6, (-)-2-[(2S)-2-[[(2R)-2-Hydroxy-2-(4-hydroxy-3-hydroxymethylphenyl)ethyl]amino]-1,2,3,4-tetrahydronaphthalen-7-yloxy]-N,N-dimethylacetamide] |  | 9.4×10^-7 mol concentration | 2.6 nM
